Among the data in DBAASP are MIC values, retold here.

In brackets after ≈: the same amount, converted by molar mass. Several values for one entry are separate records, joined by “and”; a condition that tells them apart may be missing. Identical values can stand only once. Bounds are passed on as bounds.

The MIC is the lowest concentration that inhibits growth of the organism.

Among the test systems are Enterococcus faecium; Cryptococcus neoformans; Escherichia coli ML-35; Staphylococcus aureus; Streptococcus agalactiae; Serratia marcescens; Candida albicans; Bacillus megaterium Bm11; Escherichia coli UB1005; Bacillus subtilis C971; Escherichia coli DC2; Pasteurella multocida; Bibersteinia trehalosi; Klebsiella pneumoniae; Aspergillus fumigatus.
Test in all cases: ≥ marks a high value that may be exact or a test limit, other limits are often not marked, values filed in µg/mL are converted to µM
Assay [1] deals with Serratia marcescens ATCC 8100.
The test system of assay [2] is Escherichia coli ATCC 25922.
The subject of assay [3] is Escherichia coli O18:K1:H7 Bort.
The test system of assay [4] is Staphylococcus aureus ATCC 25923.
In assay [5] the test system is Staphylococcus epidermidis ATCC 12228.
Assay [6] concerns Salmonella enterica subsp. enterica serovar Typhimurium ATCC 14028.
Assay [7] deals with Pseudomonas aeruginosa H188.
Assay [8] has as its system Staphylococcus epidermidis C621.
For assay [9], the system named is Salmonella typhimurium C587.
For assay [10], the system named is Enterococcus faecalis C625.
Assay [11] concerns Salmonella typhimurium C610.
Assay [12] deals with Pseudomonas aeruginosa H187.
Assay [13] deals with Corynebacterium xerosis C875.
Assay [14] concerns Staphylococcus aureus SAP 0017.
Assay [15] has as its system Salmonella enterica subsp. arizonae.
For assay [16], the system named is Corynebacterium pseudotuberculosis ATCC 19410.
The test system of assay [17] is Mannheimia haemolytica Serovar 6.
Assay [18] deals with Pseudomonas aeruginosa PAO1.
The test system of assay [19] is Mannheimia haemolytica Serovar 1.
The subject of assay [20] is Mannheimia haemolytica Serovar 2.
Assay [21] concerns Staphylococcus aureus ATCC BAA-1720.
Assay [22] relates to Staphylococcus epidermidis ATCC 51625.
For assay [23], the system named is Pseudomonas aeruginosa MTCC 2295.
Assay [24] concerns Escherichia coli MTCC 723.
The subject of assay [25] is Bacillus subtilis MTCC 2763.
The subject of assay [26] is Staphylococcus aureus MTCC 3160.

For the compound `CC[C@H](C)[C@H](NC(=O)[C@H](CCCCN)NC(=O)[C@H](CCCN=C(N)N)NC(=O)CNC(=O)[C@H](CC(C)C)NC(=O)[C@H](CO)NC(=O)[C@H](CCCN=C(N)N)NC(=O)[C@H](CC(C)C)NC(=O)CNC(=O)CN)C(=O)N[C@@H](CC(C)C)C(=O)N[C@@H](CCCN=C(N)N)C(=O)N[C@@H](C)C(=O)N[C@@H](Cc1c[nH]c2ccccc12)C(=O)N[C@@H](CCCCN)C(=O)N[C@@H](CCCCN)C(=O)N[C@@H](Cc1ccc(O)cc1)C(=O)NCC(=O)N1CCC[C@H]1C(=O)N[C@@H](CCC(N)=O)C(=O)N[C@@H](C)C(=O)N[C@H](C(=O)N1CCC[C@H]1C(=O)N[C@@H](C)C(=O)N[C@H](C(=O)N[C@@H](CCCN=C(N)N)C(=O)N[C@@H](CCC(N)=O)C(N)=O)[C@@H](C)O)[C@@H](C)O` [GGLRSLGRKILRAWKKYGPQATPATRQ], the MIC with Enterococcus faecium is 22.6 µM (≈ 68.1 µg/mL); in the assay on Cryptococcus neoformans, 4 µM (≈ 12 µg/mL); in the assay with Escherichia coli ML-35, 0.5 µM (≈ 1.5 µg/mL); in the assay on Staphylococcus aureus, > 64 µM and 32 µM; in the assay on Streptococcus agalactiae, 1.41 µM (≈ 4.26 µg/mL); in [1], 4 µM (≈ 12 µg/mL). In addition, the minimal inhibitory concentration (MIC) came to 1 µM (≈ 3.01 µg/mL) in [2]; 4 µM (≈ 12 µg/mL) against Serratia marcescens; 2 µM (≈ 6.02 µg/mL) in [3]; 8 µM (≈ 24.1 µg/mL) in assay [4]; 2 µM (≈ 6.02 µg/mL) in assay [5]; 8 µM (≈ 24.1 µg/mL) in the assay on Candida albicans. The results for the minimum inhibitory concentration (MIC) (in assay [6]; against Bacillus megaterium Bm11) were 1 µM (≈ 3.01 µg/mL) and 2 µM (≈ 6.02 µg/mL), respectively.

As to `CC[C@H](C)[C@H](NC(=O)[C@H](C)NC(=O)[C@H](CCCCN)NC(=O)[C@H](CC(C)C)NC(=O)[C@H](C)NC(=O)[C@@H](NC(=O)[C@H](Cc1cnc[nH]1)NC(=O)[C@H](CC(C)C)NC(=O)[C@@H](NC(=O)[C@@H](NC(=O)[C@H](CCCCN)NC(=O)[C@@H](NC(=O)[C@H](C)NC(=O)CNC(=O)[C@H](CCCCN)NC(=O)[C@H](Cc1ccccc1)NC(=O)[C@@H](NC(=O)[C@H](CCCCN)NC(=O)[C@H](CC(C)C)NC(=O)[C@H](Cc1ccccc1)NC(=O)[C@H](CO)NC(=O)[C@H](CCCCN)NC(=O)[C@H](Cc1c[nH]c2ccccc12)NC(=O)[C@H](CCCCN)NC(C)=O)[C@@H](C)O)C(C)C)[C@@H](C)O)C(C)C)[C@@H](C)O)C(=O)N[C@@H](CO)C(=O)N[C@@H](CO)C(N)=O` [KWKSFLKTFKGAVKTVLHTALKAISS], the MIC against Escherichia coli UB1005 stood at 1.73 µM (≈ 5.07 µg/mL); in assay [7], 3.49 µM (≈ 10.2 µg/mL); in assay [8], 1.38 µM (≈ 4.06 µg/mL); in assay [9] it was 4.39 µM (≈ 12.9 µg/mL); in assay [10], 4.39 µM (≈ 12.9 µg/mL); in assay [11], 1.11 µM (≈ 3.25 µg/mL). Further, the MIC in [4] stood at 2.77 µM (≈ 8.11 µg/mL); against Bacillus subtilis C971 it was 0.692 µM (≈ 2.03 µg/mL); against Escherichia coli DC2 it was 0.865 µM (≈ 2.54 µg/mL); in assay [12], 1.38 µM (≈ 4.06 µg/mL); in [13], 0.692 µM (≈ 2.03 µg/mL); in [14] it was 1.73 µM (≈ 5.07 µg/mL).

On to `CC[C@H](C)[C@H](NC(=O)[C@H](Cc1cnc[nH]1)NC(=O)[C@@H](NC(=O)[C@@H](NC(=O)[C@H](CCCCN)NC(=O)[C@H](CCCN=C(N)N)NC(=O)[C@@H](NC(=O)[C@@H](NC(=O)[C@H](CCCN=C(N)N)NC(=O)[C@H](CCCN=C(N)N)NC(=O)[C@@H](N)CC(C)C)[C@@H](C)CC)[C@@H](C)CC)[C@@H](C)CC)[C@@H](C)CC)C(=O)N[C@H](C(=O)N[C@@H](CCCCN)C(N)=O)[C@@H](C)CC` [LRRIIRKIIHIIK], for which the MIC in [15] turned out to be 12 µM (≈ 20 µg/mL); in the assay on Staphylococcus aureus, 5.98 µM (≈ 9.99 µg/mL); in assay [16], 12 µM (≈ 20 µg/mL); in assay [17], 2.51 µM (≈ 4.2 µg/mL); with Pasteurella multocida, 2.99 µM (≈ 5 µg/mL); in the assay on Bibersteinia trehalosi, 2.99 µM (≈ 5 µg/mL). Besides, the minimal inhibitory concentration (MIC) in the assay with Klebsiella pneumoniae turned out to be 4.01 µM (≈ 6.7 µg/mL); in [18], 1.02 µM (≈ 1.7 µg/mL); in the assay with Aspergillus fumigatus, 4.96 µM (≈ 8.3 µg/mL); in assay [19] it was 1.97 µM (≈ 3.3 µg/mL); in [20], 1.02 µM (≈ 1.7 µg/mL).

Consider `NC(=O)[C@H](CCCN=C(N)N)NC(=O)[C@H](Cc1c[nH]c2ccccc12)NC(=O)[C@H](Cc1c[nH]c2ccccc12)NC(=O)[C@H](CCCN=C(N)N)NC(=O)[C@@H](N)Cc1c[nH]c2ccccc12` [WRWWR], for which the MIC in assay [21] is 19.7 µM (≈ 17.5 µg/mL); in assay [22] it was 22.5 µM (≈ 20 µg/mL); in [23], ≥ 78.7 µM; in [24], ≥ 45 µM; in assay [25] it was ≥ 56.2 µM; in assay [26], 16.9 µM (≈ 15 µg/mL).
